Values quoted from earlier work as cited in US20110268797A1, “MULTICOATED ALISKIREN FORMULATIONS” (Sanovel IIac Sanayi Ve Ticaret Anonim Sirketi, priority 2010, published 2011).
Like-named read-outs stand apart in the source and are kept apart here.

Measured: solubility

COCCCOc1cc(C[C@@H](C[C@H](N)[C@@H](O)C[C@H](C(=O)NCC(C)(C)C(N)=O)C(C)C)C(C)C)ccc1OC [Aliskiren hemifumarate]
freely soluble: in n-octanol | in phosphate buffer | in water
